According to the NIST ThermoML archive (doi:10.1021/je060026r):
± gives the expanded uncertainty stated by the source.

Test: excess molar enthalpy (molar enthalpy of mixing); xn = mol fraction of the nth substance listed
Settings: 313.15 K, 101 kPa, Liquid, Flow calorimetry

COCC(C)O (stereo unspecified) [1-methoxy-2-propanol] + c1ccccc1
Settings | excess molar enthalpy [kcal/mol]
x1 = 0.0455 | 0.0767 ± 0.0017
x1 = 0.0914 | 0.124 ± 0.00263
x1 = 0.1377 | 0.155 ± 0.00335
x1 = 0.1845 | 0.176 ± 0.00382
x1 = 0.2317 | 0.188 ± 0.00406
x1 = 0.2794 | 0.194 ± 0.0043
x1 = 0.3276 | 0.195 ± 0.0043
x1 = 0.3763 | 0.193 ± 0.00406
x1 = 0.4254 | 0.186 ± 0.00406
x1 = 0.475 | 0.179 ± 0.00382
x1 = 0.5251 | 0.167 ± 0.00359
x1 = 0.5758 | 0.153 ± 0.00335
x1 = 0.6269 | 0.139 ± 0.00311
x1 = 0.6786 | 0.122 ± 0.00263
x1 = 0.7308 | 0.103 ± 0.00225
x1 = 0.7835 | 0.084 ± 0.00184
x1 = 0.8368 | 0.0643 ± 0.00143
x1 = 0.8906 | 0.0434 ± 0.00108
x1 = 0.945 | 0.0216 ± 0.001

CCCCOCCO [2-butoxyethan-1-ol] + c1ccccc1
Settings | excess molar enthalpy [kcal/mol]
x2 = 0.0343 | 0.0612 ± 0.00136
x2 = 0.0698 | 0.1 ± 0.0022
x2 = 0.1064 | 0.126 ± 0.00263
x2 = 0.1444 | 0.145 ± 0.00311
x2 = 0.1836 | 0.156 ± 0.00335
x2 = 0.2243 | 0.162 ± 0.00359
x2 = 0.2665 | 0.165 ± 0.00359
x2 = 0.3103 | 0.163 ± 0.00359
x2 = 0.3557 | 0.159 ± 0.00335
x2 = 0.4029 | 0.153 ± 0.00335
x2 = 0.452 | 0.144 ± 0.00311
x2 = 0.503 | 0.133 ± 0.00287
x2 = 0.5562 | 0.119 ± 0.00263
x2 = 0.6116 | 0.105 ± 0.00229
x2 = 0.6694 | 0.0891 ± 0.00196
x2 = 0.7297 | 0.0726 ± 0.0016
x2 = 0.7927 | 0.0544 ± 0.00122
x2 = 0.8586 | 0.0359 ± 0.00105
x2 = 0.9277 | 0.0175 ± 0.001

COCC(C)O (stereo unspecified) [1-methoxy-2-propanol] + C1CCCCC1
Settings | excess molar enthalpy [kcal/mol]
x1 = 0.0547 | 0.14 ± 0.00311
x1 = 0.109 | 0.213 ± 0.00454
x1 = 0.1626 | 0.261 ± 0.0055
x1 = 0.2158 | 0.295 ± 0.00621
x1 = 0.2684 | 0.319 ± 0.00693
x1 = 0.3205 | 0.333 ± 0.00717
x1 = 0.3721 | 0.341 ± 0.00717
x1 = 0.4232 | 0.344 ± 0.00741
x1 = 0.4738 | 0.341 ± 0.00717
x1 = 0.5239 | 0.335 ± 0.00717
x1 = 0.5736 | 0.321 ± 0.00693
x1 = 0.6227 | 0.305 ± 0.00645
x1 = 0.6715 | 0.283 ± 0.00598
x1 = 0.7197 | 0.258 ± 0.0055
x1 = 0.7675 | 0.227 ± 0.00478
x1 = 0.8149 | 0.191 ± 0.00406
x1 = 0.8618 | 0.15 ± 0.00335
x1 = 0.9083 | 0.105 ± 0.00229
x1 = 0.9544 | 0.0542 ± 0.00122

CCCCOCCO [2-butoxyethan-1-ol] + C1CCCCC1
Settings | excess molar enthalpy [kcal/mol]
x2 = 0.0414 | 0.0997 ± 0.00217
x2 = 0.0836 | 0.149 ± 0.00311
x2 = 0.1265 | 0.183 ± 0.00406
x2 = 0.1702 | 0.207 ± 0.00454
x2 = 0.2148 | 0.222 ± 0.00478
x2 = 0.2602 | 0.233 ± 0.00502
x2 = 0.3065 | 0.24 ± 0.00526
x2 = 0.3536 | 0.243 ± 0.00526
x2 = 0.4017 | 0.242 ± 0.00526
x2 = 0.4507 | 0.238 ± 0.00502
x2 = 0.5007 | 0.229 ± 0.00502
x2 = 0.5518 | 0.219 ± 0.00478
x2 = 0.6038 | 0.204 ± 0.0043
x2 = 0.6569 | 0.186 ± 0.00406
x2 = 0.7111 | 0.165 ± 0.00359
x2 = 0.7665 | 0.139 ± 0.00311
x2 = 0.823 | 0.11 ± 0.00239
x2 = 0.8807 | 0.077 ± 0.0017
x2 = 0.9397 | 0.0402 ± 0.00105
